Reference: PubChem BioAssay AID248 (DTP/NCI, 2004)
Inconclusive results and toxic doses are left out. Numbered stars: 1 amine (or outer) side, 2 acyl side, 3 side chain; on linkers, the order of the positions; unused ones are H or OH. Bridge positions count the residues as written; N and C are the ends. Square brackets hold non-standard residues; d marks the D form. Peptide text beside a SMILES is read from it. I, II: the chains in the order shown. Actinocin(1to9) = Cc1c2oc3c(C)ccc(C(=O)[*:2])c3nc-2c(C(=O)[*:1])c(N)c1=O; X5 = O=C1CC(C(=O)[*:2])N([*:1])C1; NMeV = CN[CH](C(=O)O)C(C)C; Sar = CNCC(=O)O

Test system: L1210 leukemia ip in BDF1 mice, survival T/C
Assay: NCI In Vivo Anticancer Drug Screen. Data for tumor model L1210 Leukemia (intraperitoneal) in B6D2F1 (BDF1) mice
Settings: higher = longer survival
How it was run: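 Survival endpoint. Drug-treated group vs vehicle group, expressed as T divided by C. Tumor passaged by transplantation.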

[1] = endpoint: mean survival time, dose: 100.0 mg/kg/injection, schedule: Q04DX003 (ip), vehicle: saline
[2] = endpoint: mean survival time, dose: 100.0 mg/kg/injection, schedule: Q04DX003 (ip), vehicle: Klucel (hydroxypropylcellulose) (HPC)
[3] = endpoint: mean survival time, dose: 200.0 mg/kg/injection, schedule: Q04DX003 (ip), vehicle: Klucel (hydroxypropylcellulose) (HPC)
[4] = endpoint: mean survival time, dose: 400.0 mg/kg/injection, schedule: Q04DX003 (ip), vehicle: Klucel (hydroxypropylcellulose) (HPC)
[5] = endpoint: mean survival time, dose: 100.0 mg/kg/injection, schedule: Q04DX003 (ip), vehicle: saline with Tween-80
[6] = endpoint: mean survival time, dose: 200.0 mg/kg/injection, schedule: Q04DX003 (ip), vehicle: saline with Tween-80
[7] = endpoint: mean survival time, dose: 400.0 mg/kg/injection, schedule: Q04DX003 (ip), vehicle: saline with Tween-80

`CCCCCCCC(=O)NOS(=O)(=O)O` was tested, and the T/C (endpoint: mean survival time, dose: 25.0 mg/kg/injection, schedule: Q01DX001 (ip), vehicle: saline) was 101 % of control, the T/C (endpoint: mean survival time, dose: 25.0 mg/kg/injection, schedule: Q01DX009 (ip), vehicle: saline) was 91 % of control and the T/C (endpoint: mean survival time, dose: 25.0 mg/kg/injection, schedule: Q04DX003 (ip), vehicle: saline) was 100 % of control. For the same molecule, the T/C (endpoint: mean survival time, dose: 50.0 mg/kg/injection, schedule: Q01DX001 (ip), vehicle: saline) was 97 % of control, the T/C (endpoint: mean survival time, dose: 50.0 mg/kg/injection, schedule: Q01DX009 (ip), vehicle: saline) was 88 % of control and the T/C (endpoint: mean survival time, dose: 50.0 mg/kg/injection, schedule: Q04DX003 (ip), vehicle: saline) was 95 % of control. For the same molecule, the T/C [1] was 95 % of control.
With `Cc1c2oc3c(C)ccc(C(=O)NC4C(=O)NC(C(C)C)C(=O)N5CCCC5C(=O)N(C)CC(=O)N(C)C(C(C)C)C(=O)OC4C)c3nc-2c(C(=O)NC2C(=O)NC(C(C)C)C(=O)N3CC(=O)CC3C(=O)N(C)CC(=O)N(C)C(C(C)C)C(=O)OC2C)c(N)c1=O` (stereo not given) (I: TV[X5][Sar][NMeV] / II: TVP[Sar][NMeV]; ester I:1-I:C, II:1-II:C; linker I:N-II:N via Actinocin(1to9); configuration not given here) the T/C (endpoint: median survival time, dose: 3.1 micrograms/kg/injection, schedule: Q01DX009 (ip), vehicle: water) was 108 % of control, the T/C (endpoint: median survival time, dose: 6.2 micrograms/kg/injection, schedule: Q01DX009 (ip), vehicle: water) was 120 % of control and the T/C (endpoint: median survival time, dose: 12.5 micrograms/kg/injection, schedule: Q01DX009 (ip), vehicle: water) was 116 % of control. For the same molecule, the T/C (endpoint: median survival time, dose: 18.7 micrograms/kg/injection, schedule: Q04DX003 (ip), vehicle: water) was 108 % of control, the T/C (endpoint: median survival time, dose: 25.0 micrograms/kg/injection, schedule: Q01DX009 (ip), vehicle: water) was 108 % of control and the T/C (endpoint: median survival time, dose: 37.5 micrograms/kg/injection, schedule: Q04DX003 (ip), vehicle: water) was 113 % of control.
For `O=C(c1ccc(Cl)cc1)c1ccc(Cl)cc1`, the T/C [2] was 105 % of control, the T/C [3] was 100 % of control and the T/C [4] was 96 % of control.
With `CC1=CC(=C(c2ccccc2)c2ccccc2)C=C(C)C1=O` the T/C (endpoint: mean survival time, dose: 12.0 mg/kg/injection, schedule: Q01DX009 (ip), vehicle: Klucel (hydroxypropylcellulose) (HPC)) was 103 % of control, the T/C (endpoint: mean survival time, dose: 25.0 mg/kg/injection, schedule: Q01DX009 (ip), vehicle: Klucel (hydroxypropylcellulose) (HPC)) was 107 % of control and the T/C (endpoint: mean survival time, dose: 50.0 mg/kg/injection, schedule: Q01DX009 (ip), vehicle: Klucel (hydroxypropylcellulose) (HPC)) was 97 % of control. For the same molecule, the T/C (endpoint: mean survival time, dose: 100.0 mg/kg/injection, schedule: Q01DX009 (ip), vehicle: Klucel (hydroxypropylcellulose) (HPC)) was 100 % of control, the T/C [2] was 102 % of control and the T/C [3] was 102 % of control. The T/C [4] was 122 % of control.
For `CC1CN=C(c2ccc([N+](=O)[O-])cc2)S1` (stereo not given), the T/C (endpoint: mean survival time, dose: 100.0 mg/kg/injection, schedule: Q01DX001 (ip), vehicle: Klucel (hydroxypropylcellulose) (HPC)) was 100 % of control, the T/C (endpoint: mean survival time, dose: 200.0 mg/kg/injection, schedule: Q01DX001 (ip), vehicle: Klucel (hydroxypropylcellulose) (HPC)) was 95 % of control and the T/C (endpoint: mean survival time, dose: 400.0 mg/kg/injection, schedule: Q01DX001 (ip), vehicle: Klucel (hydroxypropylcellulose) (HPC)) was 94 % of control.
`Nc1nc(N)c2nc(CN3CCCc4cc(C(=O)NC(CCC(=O)O)C(=O)O)ccc43)cnc2n1` (stereo not given) was tested, and the T/C [1] was 207 % of control.
With `NCCc1cnc(N=Nc2ccc(S(=O)(=O)N(CCCl)CCCl)cc2)[nH]1` the T/C [5] was 93 % of control, the T/C [6] was 86 % of control and the T/C [7] was 89 % of control.
In the case of `c1ccc2c[n+](Cc3nc4ccccc4[nH]3)ccc2c1`, the T/C (endpoint: mean survival time, dose: 75.0 mg/kg/injection, schedule: Q01DX001 (ip), vehicle: saline) is reported as 101 % of control.
With `Cc1oc2ccc(O)c(N=Nc3cccc([N+](=O)[O-])c3)c2c1C` the T/C [2] was 97 % of control, the T/C [3] was 101 % of control and the T/C [4] was 109 % of control.
For `COC(=O)Nc1nc2cc(Cl)c(Cl)cc2[nH]1`, the T/C (endpoint: mean survival time, dose: 100.0 mg/kg/injection, schedule: Q01DX001 (ip), vehicle: carboxymethylcellulose (CMC)) was 94 % of control, the T/C (endpoint: mean survival time, dose: 200.0 mg/kg/injection, schedule: Q01DX001 (ip), vehicle: carboxymethylcellulose (CMC)) was 100 % of control and the T/C (endpoint: mean survival time, dose: 400.0 mg/kg/injection, schedule: Q01DX001 (ip), vehicle: carboxymethylcellulose (CMC)) was 100 % of control.
For `Brc1ccccc1C=C1c2ccccc2-c2ccccc21`, the T/C [5] was 102 % of control, the T/C [6] was 101 % of control and the T/C [7] was 96 % of control.
With `Cc1no[n+]([O-])c1NC(=O)OCc1ccccc1` the T/C (endpoint: mean survival time, dose: 100.0 mg/kg/injection, schedule: Q04DX002 (ip), vehicle: Klucel (hydroxypropylcellulose) (HPC)) was 98 % of control, the T/C (endpoint: mean survival time, dose: 200.0 mg/kg/injection, schedule: Q04DX002 (ip), vehicle: Klucel (hydroxypropylcellulose) (HPC)) was 102 % of control and the T/C (endpoint: mean survival time, dose: 400.0 mg/kg/injection, schedule: Q04DX002 (ip), vehicle: Klucel (hydroxypropylcellulose) (HPC)) was 98 % of control.
In the case of `NC(CSS(=O)(=O)O)=NCCCCc1ccccc1`, the T/C (endpoint: mean survival time, dose: 12.5 mg/kg/injection, schedule: Q04DX002 (ip), vehicle: Klucel (hydroxypropylcellulose) (HPC)) is reported as 91 % of control and the T/C (endpoint: mean survival time, dose: 25.0 mg/kg/injection, schedule: Q04DX002 (ip), vehicle: Klucel (hydroxypropylcellulose) (HPC)) is reported as 102 % of control.
